Measured values published in paper PMC2783557 (Brain, behavior, and immunity, 2009).

Legend:
Male CD-1 mice = assay: Brain uptake; assay type: in vivo, mouse; settings: indomethacin 20 mg/kg ip 30 min before LPS 3 mg/kg; n = 6-8/group
Tg2576 mice = settings: chronic treatment from 8-15 months of age, ref Sheng et al., 2003; cited from earlier work

COc1ccc2c(c1)c(CC(=O)O)c(C)n2C(=O)c1ccc(Cl)cc1 [Indomethacin]
effect of LPS on brain uptake (influx) of I-Aβ (Male CD-1 mice): did not reverse
levels of soluble Aβ40 and Aβ42 in the hippocampus and cortex (Tg2576 mice): significantly reduce
